Test system: HL-1 cardiomyocytes
Experiment: oxygen consumption (Clark-type oxygen electrode)
Assay type: cell-based, Mus musculus
Conditions: HL-1 cells, 48 hr treatment, normalized to protein content; FIG. 5
Experimental: HL-1 cardiomyocytes (a gift from W. C. Claycomb, New Orleans, School of Medicine) were plated in fibronectin/gelatin-coated flasks, grown to 70%-80% confluence in Claycomb medium (JRH Biosciences) supplemented with 100 μM norepinephrine (from a 10 mM norepinephrine [Sigma-Aldrich] stock solution dissolved in 30 mM L-ascorbic acid [Sigma-Aldrich]), 2 mM L-glutamine, 100 U/ml penicillin, 100 μg/ml streptomycin and 10% FBS (JRH Biosciences) as disclosed in Claycomb et al., 1998.
At the end of these periods, mRNA and DNA were extracted from the cells or the cells were used to evaluate the oxygen consumption. Control cells were treated with Claycomb medium only.
An amount of 1 ml of HL-1 cardiomyocytes treated with the compositions shown in Table 1 was re-suspended in Hank's balanced salt solution (Sigma) and spun down to pellet cells. A number of HL-1 cells was also supplemented with a nitic oxide (NO) donor, specifically with diethylenetriamine-NO also called (DETA-NO; Sigma-Aldrich, Milan, Italy), as positive control. […]
Samples were analyzed at 37° C. in a gas-tight vessel equipped with a Clark-type oxygen electrode (Rank Brothers Ltd.) connected to a chart recorder. […]
Oxygen consumption was assessed with continuous mixing for about ten minutes. […] Protein content was determined by using the bicinchoninic acid protein (BCA) assay.

## NCCN(CCN)/[N+]([O-])=N/O [DETA-NO, diethylenetriamine-NO]
  oxygen consumption: a rise of oxygen consumption was observed

Reference: patent US20220249418A1, “COMPOSITIONS COMPRISING AMINO ACIDS FOR USE IN THE TREATMENT OF MITOCHONDRIAL DYSFUNCTION-RELATED DISEASES” (PROFESSIONAL DIETETICS INTERNATIONAL S.R.L., priority 2017, published 2022)
